Key:
Study-4: adverse effects = type: in vivo, mice; settings: TPI-1 with TLR agonists (each 50 μg), i.p.
Procedure: (§1) FIGS. 14A-14E depict that pulse-intermittent inhibition of SHP-1 (iSHP-1) combined with TLR agonists (αTLR) treating late-stage KPC pancreatic ductal adenocarcinoma. FIG. 14A depicts the treatment scheme. Mice with large KPC tumors were treated (i.p.) consecutively for three days with TPI-I plus TLR agonists (CpG, PolyIC and R848, each 50 μg). After the initial pulse treatment, an intermittent period of 9-day was given before the 2nd cycle of treatment of two days with TPI plus TLR agonists. FIG. 14B depicts the luminescent images of mice with KPC tumor during the course of treatment. FIG. 14C depicts tumor volume changes.

KPC pancreatic tumor [1] = test: Cytokines secreted by KPC tumor pieces treated with TLR agonists with or without TPI-1; design: species or system mice; settings: TPI-1 0.4 μM with TLR agonists 1 μg/ml, 18 h
Procedure: KPC pancreatic tumor removed from mice were cut into small pieces and treated with 5 different TLR agonists (R848, 3M-852A, Motolimod, Bropirimine or Vesatolimod; 1 μg/ml each) without or with SHP-1 inhibitor TPI-1 (0.4 μM). After 18 h, cytokines secreted into the culture medium were assayed.

[2] = test system: KPC pancreatic adenocarcinoma; test: Study-1: continuous vs intermittent iSHP-1 with TLR agonists, efficacy; type: in vivo, mice; settings: 1, 3 and 10 mg/kg i.p., with CpG plus PolyI:C
Procedure: FIGS. 11A-11E depict the impact of continuous or intermittent iShp-1 treatment on the efficacy and adverse toxicity. FIG. 11A depicts the study design. Mice with KPC pancreatic cancer were either continuously treated with TPI-1 (1× per day) or in an intermittent fashion with gapping days between two treatments (intermittent). Three doses, 1, 3 and 10 mg/kg (i.p.), were tested and TLR agonists (CpG plus PolyI:C, each 10 μg, i.p., 1× every 3 day) was given to kickstart inflammatory response. […] Tumor imaging (FIG. 11B) and volume change records (FIG. 11C) indicate similar efficacies of iShp-1 with continuous or intermittent schemes.
Tumor model: Single engraftment of KPC pancreatic adenocarcinoma
Treatments & dosing strategies: i) iSHP-1—TPI-1, 1, 3, and 10 mg/kg; i.p. either 1× per day (continuous), or following an intermittent schedule depicted in FIG. 11. ii) TLR agonists (αTLR)—CpG, PolyI:C, each 10 μg; i.p. every 3 days

KPC pancreatic tumor [3] = test: Cytokines, antigen presentation and chemokines in KPC tumor after treatment; type: in vivo, murine
Source text: FIGS. 7A-7F depict that the inhibition of SHP-1 unleashes proinflammatory response and antigen presentation in solid tumor upon therapies. […] Low PTP/SHP-1 activity was found in untreated, homeostatic tumor. […] Similar data were obtained by studying colorectal carcinoma MC38.

STAT1 and Erk1/2 = test: Pulse inhibition of SHP-1, STAT1 and Erk1/2 phosphorylation (WB); type: cell-based, murine; settings: IFNγ/LPS, immediately after treatment
Procedure: (§2) FIGS. 4A and 4B depict that pulse inhibition of SHP-1 transiently enhances proinflammatory signal transduction in macrophages. FIG. 4A: murine macrophages (bone marrow derived macrophages, or “BMDM”) were treated with TPI-1 for 15 min followed by wash to complete removal of TPI-1. At different time points after the TPI-1 treatment, macrophages were stimulated with IFNγ/LPS in the presence of alive cancer cells (1:1 ratio to BMDM) for 20 min prior to cell lysis and assaying SHP-1 activity using pNpp and WB detecting total and phosphorylated STAT1 and Erk1/2. FIG. 4B: the same setting as in FIG. 4A, except that after TPI-1 treatment, TPI-1 in medium was partially removed (50%) or without removal, followed by macrophage stimulation with IFNγ/LPS at different time points.

MC38 solid tumor = test: Cytokine secretion of excised MC38 tumor cubes (ELISA); design: species or system murine; settings: 100 nM, 24 h
Source text: FIGS. 6A-6D depict that the inhibition of SHP-1 promotes anti-tumor effects or pro-tumor effects under different circumstances. FIG. 6A depicts that intratumoral macrophages upregulate expression of iRs (Pir-B, Siglec E, F and G, and SIRPα) along with tumor progression to late-stage large sizes. KPC pancreatic tumors of small sizes (<150 mm^3) and those grown to larger sizes (>800 mm^3) were dissociated to single cells, followed by flow cytometry analyses for cell surface protein expression on macrophages (gated F4/80+). FIG. 6B depicts that the inhibition of SHP-1 alone promotes TME immunosuppression. Excised MC38 solid tumor cubes were treated with SHP-1 inhibitor TPI-1 (100 nM) or vehicle (DMSO) in a cell culture setting. After 24 h, tumor secreting cytokines into the culture medium were assayed by ELISA.

SHP-1 = biological target: T1, SHP-1 (Mus musculus, UniProt P29351); test: Pulse inhibition of SHP-1 in macrophages, SHP-1 activity (pNpp) over time; type: cell-based, murine
T1 construct: lysate pNpp phosphatase activity after TPI-1 pulse
T1 sequence (P29351 whole entry): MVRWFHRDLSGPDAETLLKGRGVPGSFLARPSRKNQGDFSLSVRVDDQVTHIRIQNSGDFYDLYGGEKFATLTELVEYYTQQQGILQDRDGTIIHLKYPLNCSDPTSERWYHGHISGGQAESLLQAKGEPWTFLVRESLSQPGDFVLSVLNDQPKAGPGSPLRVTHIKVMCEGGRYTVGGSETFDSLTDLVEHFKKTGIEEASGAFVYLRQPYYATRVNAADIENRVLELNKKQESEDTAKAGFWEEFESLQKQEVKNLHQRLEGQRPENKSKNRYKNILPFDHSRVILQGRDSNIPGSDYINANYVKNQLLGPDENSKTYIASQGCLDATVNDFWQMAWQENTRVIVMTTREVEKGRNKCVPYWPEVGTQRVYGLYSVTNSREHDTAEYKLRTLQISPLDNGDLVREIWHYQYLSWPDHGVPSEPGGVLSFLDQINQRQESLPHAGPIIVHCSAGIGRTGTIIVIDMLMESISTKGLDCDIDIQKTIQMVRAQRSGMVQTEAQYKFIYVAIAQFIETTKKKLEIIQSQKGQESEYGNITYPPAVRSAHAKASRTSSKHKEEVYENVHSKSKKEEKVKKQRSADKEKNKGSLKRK
Procedure: as §2

[4] = test system: EL4, B16, MC38, Pan01, KPC and LLC cancer cells; test: Phagocytosis by murine bone marrow-derived macrophages; type: cell-based; settings: 1 μg/ml
Procedure: FIGS. 2A-2G depict that the inhibition of SHP-1 enhances macrophage proinflammatory response, antigen presentation and phagocytosis in a tumor milieu. FIG. 2A and FIG. 2B depict that SHP-1 activity in macrophages is triggered by proinflammatory stimulation and the extracellular cancer cell ligation (“touching”) of macrophages (green bar in FIG. 2A). […] The SHP-2 inhibitor SHP099 (1 μg/ml) was used in assays. FIG. 2C depicts the inhibition of SHP-1 by TPI-1 dose-dependently recovers IFNγ/LPS-induced activation of STAT1 (p-STAT1) and Erk1/2 (p-Erk1/2) de-activated by SHP-1 (red line). FIG. 2D and FIG. 2E depict that the inhibition of SHP-1 in macrophages by TPI-1 enhances production of proinflammatory cytokines (FIG. 2D) and expression of immunogenic antigen presentation machinery (FIG. 2E) by IFNγ/LPS in a tumor milieu. […] The SHP-1 and SHP-2 inhibitors TPI-1 and SHP099, respectively, was used at 1 μg/ml in assays.

[5] = test system: KPC pancreatic ductal adenocarcinoma; test: Study-4: late-stage, large KPC pancreatic cancer; type: in vivo, mice
Procedure: as §1
Murine models: Single large pancreatic ductal adenocarcinoma (KPC-luc) C57BL6 syngeneic
Treatments: SHP-1 inhibition (iSHP-1) combined with TLR agonists (αTLR)

[6] = with αTLR or RT, single dose TPI-1
[7] = with αTLR or RT, single dose TPI-1, 6-18 h

O=C1C=CC(=O)C(c2cc(Cl)ccc2Cl)=C1 [TPI-1]
adverse effects and body weight (Study-4: adverse effects): minor adverse effects and transient body weight loss followed by recovery | cytokines secreted, with SHP-1 inhibitor (KPC pancreatic tumor [1]): induced high production of proinflammatory cytokine s while suppressing production of IL-10 and TGFβ | tumor response [2]: restrained KPC pancreatic tumor growth and induced tumor regression | proinflammatory cytokines in tumor (KPC pancreatic tumor [3]; with TLR agonists or RT, single dose TPI-1, 6-18 h post treatment): high expression of proinflammatory cytokines | TGFRs and CCL2 in TME (KPC pancreatic tumor [3]; [6]): reduced | chemokines that attract neutrophils, NK and T cells (KPC pancreatic tumor [3]; [6]): increased in the TME | IL-10 and TGFβ in tumor (KPC pancreatic tumor [3]; [7]): abating IL-10 and TGFβ | antigen presentation markers of intratumoral macrophages (KPC pancreatic tumor [3]; [7]): elevated cell surface markers MHC-I, MHC-II, and costimulatory molecules CD80, CD86, CD40, OX40L | pSTAT-1 and pErk1/2 (STAT1 and Erk1/2): increased pSTAT-1 and pErk1/2 | tumor production of IL-6 (MC38 solid tumor): increased tumor production of IL-6 and IL-10 | tumor production of IL-10 (MC38 solid tumor): increased tumor production of IL-6 and IL-10 | duration of pulse SHP-1 inhibition before activity starts to recover (SHP-1; 15 min treatment, then wash): 5 to 8 h | time for SHP-1 activity to recover to over 50% (SHP-1; 15 min treatment, then wash): 12 to 16 h | SHP-1 total protein (SHP-1; after pulse inhibition): did not appear to vary | SHP-1 inhibition (in words) (SHP-1; immediately after 15 min treatment and wash): strong SHP-1 inhibition | SHP-1 activity recovered (SHP-1; in 12-16 h after 15 min treatment and wash): over 50% | time to recover SHP-1 activity after pulse inhibition (SHP-1; pulse inhibition in macrophages): 24 h | SHP-1 inhibition without or with partial inhibitor removal (SHP-1; without removal or 50% removal): elongated inhibition on the SHP-1 activity | phagocytosis of cancer cells [4]: promotes proinflammatory-activated macrophages for phagocytosis of cancer cells | anti-tumor immune cells ([5]; TPI-1 combined with αTLR, i.p.): bolstered anti-tumor immune cells such as CD8+ T cells, NK cells and neutrophils | eradication of late-stage tumors ([5]; TPI-1 combined with αTLR, i.p.): effectively eradiated late-stage, large KPC pancreatic cancers | intratumoral immunosuppressive populations ([5]; TPI-1 with TLR agonists, day 4): reduction of intratumoral immunosuppressive populations including macrophages (MØ) and MDSC
